Laboratory results from ChEMBL document CHEMBL3217748, “Chemical synthesis and biological study of 4-carboxymethyl-epiafzelechin acid, an osteoprotective compound from the rhizomes of Drynaria fortunei” (2012).
Active and inactive are the calls of the source. The calls are words filed in the database; no cut-off is given here.

Assays:
UMR106 [1] = experiment: Induction of rat UMR106 cell proliferation after 24 hrs by MTS assay; assay type: functional, cell-based
[2] = Induction of rat UMR106 cell proliferation assessed as increase in cell number at 10^-10 to 10^-8 M after 24 hrs by MTS assay relative to control; assay type: functional
UMR106 [3] = experiment: Induction of rat UMR106 cell proliferation after 24 hrs by MTS assay in presence of estrogen receptor antagonist ICI 182,780; assay type: functional, cell-based
[4] = Induction of rat UMR106 cell differentiation at 10^-10 M after 24 hrs by ALP assay relative to control; assay type: functional
[5] = (§1) Induction of rat UMR106 cell differentiation at 10^-8 M after 24 hrs by ALP assay relative to control; assay type: functional
[6] = Induction of rat UMR106 cell differentiation at 10^-6 M after 24 hrs by ALP assay relative to control; assay type: functional
UMR106 [7] = experiment: Induction of rat UMR106 cell differentiation after 24 hrs by ALP assay in presence of estrogen receptor antagonist ICI 182,780; assay type: functional, cell-based
[8] = biological target: Estrogen receptor beta (Homo sapiens) (UniProt Q92731); experiment: Transactivation of human ER-beta transfected in rat UMR106 cells at 10^-14 to 10^-6 M after 24 hrs by dual luciferase reporter gene assay; assay type: cell-based
UMR106 [9] = experiment: Induction of rat UMR106 cell proliferation assessed as increase in cell number at 10^-8 M after 24 hrs by MTS assay; assay type: functional, cell-based
UMR106 [10] = experiment: Induction of rat UMR106 cell proliferation at 10^-8 M after 24 hrs by MTS assay in presence of estrogen receptor antagonist ICI 182,780; assay type: functional, cell-based
UMR106 [11] = experiment: as §1; assay type: functional

Chain of Estrogen receptor beta (Homo sapiens) (Q92731 whole entry): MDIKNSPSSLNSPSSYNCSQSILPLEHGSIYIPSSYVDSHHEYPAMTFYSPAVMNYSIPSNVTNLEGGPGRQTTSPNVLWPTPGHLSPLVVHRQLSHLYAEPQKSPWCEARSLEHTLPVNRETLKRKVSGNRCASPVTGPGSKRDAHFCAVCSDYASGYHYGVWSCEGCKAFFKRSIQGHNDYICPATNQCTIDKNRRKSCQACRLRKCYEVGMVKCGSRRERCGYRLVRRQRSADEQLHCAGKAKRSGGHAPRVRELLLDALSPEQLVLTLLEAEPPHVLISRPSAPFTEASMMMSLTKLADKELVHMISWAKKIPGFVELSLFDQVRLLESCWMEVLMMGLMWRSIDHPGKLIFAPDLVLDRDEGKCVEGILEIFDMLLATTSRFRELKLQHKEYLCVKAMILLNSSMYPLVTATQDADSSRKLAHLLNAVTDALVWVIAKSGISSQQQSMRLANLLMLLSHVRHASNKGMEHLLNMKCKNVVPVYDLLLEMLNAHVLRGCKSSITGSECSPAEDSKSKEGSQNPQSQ

Structure (SMILES) | Activity (UMR106 [1]) | fold change (FC) [2] | Activity (UMR106 [3]) | Activity [4] [%] | Activity [5] [%] | Activity [6] [%] | Activity (UMR106 [7]) | Activity [8] | Activity (UMR106 [9]) | Activity (UMR106 [10]) | Activity (UMR106 [11])
O=C(O)C[C@H]1c2c(O)cc(O)cc2O[C@H](c2ccc(O)cc2)[C@@H]1O | Dose-dependent effect | 1.4 | inactive | 18 | 14 | 18 | Active | inactive |  |  | 
C[C@]12CC[C@@H]3c4ccc(O)cc4CC[C@H]3[C@@H]1CC[C@@H]2O | Dose-dependent effect |  |  |  |  |  | Active |  | Active | inactive | Active
O=C1C[C@H]2c3c(O)cc(O)cc3O[C@H](c3ccc(O)cc3)[C@H]2O1 | Dose-dependent effect |  | inactive | 10 |  |  | Active | inactive |  |  | 
